21 molecules from patent US9221795B2, “Phosphatidylinositol 3-kinase inhibitors” (Gilead Sciences, Inc., priority 2013, dated 2015) can be followed below.

Chain of PI3Kδ (O00329 whole entry, the tested form may be a part, canonical isoform): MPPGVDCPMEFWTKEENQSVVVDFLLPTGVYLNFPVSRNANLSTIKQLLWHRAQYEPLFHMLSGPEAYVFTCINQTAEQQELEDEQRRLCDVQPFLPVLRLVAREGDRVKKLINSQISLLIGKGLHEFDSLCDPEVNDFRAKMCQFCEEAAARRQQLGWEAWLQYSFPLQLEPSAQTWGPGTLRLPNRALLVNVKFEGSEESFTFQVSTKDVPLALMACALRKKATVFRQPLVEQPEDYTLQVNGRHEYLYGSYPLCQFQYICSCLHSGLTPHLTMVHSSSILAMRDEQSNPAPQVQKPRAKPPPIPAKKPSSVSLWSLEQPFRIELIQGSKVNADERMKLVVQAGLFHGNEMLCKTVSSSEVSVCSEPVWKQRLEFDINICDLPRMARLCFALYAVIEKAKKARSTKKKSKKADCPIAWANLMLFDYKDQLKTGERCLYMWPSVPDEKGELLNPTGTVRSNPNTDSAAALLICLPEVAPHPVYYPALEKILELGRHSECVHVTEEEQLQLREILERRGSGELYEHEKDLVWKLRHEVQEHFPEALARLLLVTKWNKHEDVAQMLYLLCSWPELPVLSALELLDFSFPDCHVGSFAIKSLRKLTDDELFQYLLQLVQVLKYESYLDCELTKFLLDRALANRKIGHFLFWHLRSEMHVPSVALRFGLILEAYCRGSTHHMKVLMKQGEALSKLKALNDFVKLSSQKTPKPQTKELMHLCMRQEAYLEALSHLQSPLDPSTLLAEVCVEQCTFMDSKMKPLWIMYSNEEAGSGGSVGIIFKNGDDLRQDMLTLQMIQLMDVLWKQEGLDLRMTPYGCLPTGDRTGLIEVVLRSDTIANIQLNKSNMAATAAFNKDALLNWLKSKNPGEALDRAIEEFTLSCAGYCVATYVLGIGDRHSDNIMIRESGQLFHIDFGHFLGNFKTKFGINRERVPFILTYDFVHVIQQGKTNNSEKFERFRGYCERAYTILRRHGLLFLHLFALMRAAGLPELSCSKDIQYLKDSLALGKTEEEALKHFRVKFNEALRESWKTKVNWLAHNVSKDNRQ
Chain of PI3Kδ (P27986 whole entry partner, the tested form may be a part, canonical isoform): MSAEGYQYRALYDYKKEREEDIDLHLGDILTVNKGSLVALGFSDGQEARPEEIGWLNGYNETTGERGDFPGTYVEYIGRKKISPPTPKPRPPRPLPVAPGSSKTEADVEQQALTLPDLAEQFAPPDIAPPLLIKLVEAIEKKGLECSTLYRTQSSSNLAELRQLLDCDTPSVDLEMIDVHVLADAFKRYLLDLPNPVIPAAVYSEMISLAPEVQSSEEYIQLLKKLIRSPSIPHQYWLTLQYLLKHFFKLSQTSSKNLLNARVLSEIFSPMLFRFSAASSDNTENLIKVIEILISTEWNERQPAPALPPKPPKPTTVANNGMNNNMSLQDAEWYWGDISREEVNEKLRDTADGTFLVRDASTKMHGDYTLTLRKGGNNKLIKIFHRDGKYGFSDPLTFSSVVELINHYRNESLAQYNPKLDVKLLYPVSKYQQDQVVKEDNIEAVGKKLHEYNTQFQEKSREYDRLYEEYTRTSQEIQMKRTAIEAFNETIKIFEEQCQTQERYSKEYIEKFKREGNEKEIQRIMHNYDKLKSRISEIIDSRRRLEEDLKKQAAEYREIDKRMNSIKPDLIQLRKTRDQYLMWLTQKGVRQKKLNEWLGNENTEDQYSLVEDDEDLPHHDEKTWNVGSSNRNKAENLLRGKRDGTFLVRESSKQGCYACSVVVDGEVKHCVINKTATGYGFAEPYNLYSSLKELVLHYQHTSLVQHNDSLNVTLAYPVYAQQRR

For this assay, the target named is PI3Kδ (Homo sapiens (Human), UniProt O00329). Briefly: Enzymatic activity of PI3K isoforms, TR-FRET assay (PI3Kδ). The format is biochemical. The conditions noted are these: 2× Km ATP, geometric mean if more than one value. As for the experimental part:
Enzymatic activity of the class I PI3K isoforms in the presence of the compounds of Table 1 and Compounds X, Y and Z was measured using a time-resolved fluorescence resonance energy transfer (TR-FRET) assay. The TR-FRET assay was used to monitor formation of the product 3,4,5-inositol triphosphate molecule (PIP3) as it competed with fluorescently labeled PIP3 for binding to the GRP-1 pleckstrin homology domain protein. An increase in […] product results in a decrease in TR-FRET signal as the labeled fluorophore is displaced from the GRP-1 protein binding site.
Class I PI3K isoforms were expressed and purified as heterodimeric recombinant proteins. All assay reagents and buffers for the TR-FRET assay were purchased from Millipore. PI3K isoforms were assayed under initial rate conditions in the presence of 25 mM Hepes (pH 7.4), and 2× Km ATP (75-500 μM), 2 μM PIP2, 5% glycerol, 5 mM MgCl2, 50 mM NaCl, 0.05% (v/v) Chaps, 1 mM dithiothreitol, 1% (v/v) DMSO at the following concentrations for each isoforms: PI3Kα, PI3Kβ, and PI3Kδ between 25 and 50 pM, and PI3Kγ at 2 nM. After an assay reaction time of 30 minutes at 25° C., reactions were terminated with a final concentration of 10 mM EDTA, 10 nM labeled-PIP3, and 35 nM Europium labeled GRP-1 detector protein before reading TR-FRET on an Envision plate reader (Ex: 340 nm; Em: 615/665 nm; […] delay and 500 μs read window).
Data were normalized based on positive ([…] wortmanin) and negative (DMSO) controls. α, β, δ, and γ IC50 values were calculated from the fit of the dose-response curves to a four-parameter equation. All IC50 values represent geometric mean values if more than one value was obtained. IC50 values were reported in units of nM.
A general note: Time-resolved FRET reads energy transfer from a long-lived donor to a nearby acceptor.
`Cc1c(F)cncc1-n1c([C@@H](C)Nc2nc(N)nc(N)c2C#N)nc2cccc(Cl)c2c1=O` (atropisomer, axis not shown) [Compound 115, (R)-2,4-diamino-6-((1-(5-chloro-3-(5-fluoro-4-methylpyridin-3-yl)-4-oxo-3,4-dihydroquinazolin-2-yl)ethyl)amino)pyrimidine-5-carbonitrile] yielded an IC50 of 4 nM. The same measure for `C[C@H](Nc1nc(N)nc(N)c1Cl)c1nc2cccc(S(C)(=O)=O)c2c(=O)n1-c1cccnc1` [Compound 49, (S)-2-(1-((2,6-diamino-5-chloropyrimidin-4-yl)amino)ethyl)-5-(methylsulfonyl)-3-(pyridin-3-yl)quinazolin-4(3H)-one]: 67 nM. The figure for `C[C@H](Nc1nc(N)nc(N)c1C(N)=O)c1nc2cccc(Cl)c2c(=O)n1-c1cccnc1` [Compound 50, (S)-2,4-Diamino-6-((1-(5-chloro-4-oxo-3-(pyridin-3-yl)-3,4-dihydroquinazolin-2-yl)ethyl)amino)pyrimidine-5-carboxamide] is 2 nM; for `C[C@H](Nc1nc(N)nc(N)c1Cl)c1nc2cccc(Cl)c2c(=O)n1-c1cncc(F)c1` [Compound 51, (S)-5-Chloro-2-(1-((2,6-diamino-5-chloropyrimidin-4-yl)amino)ethyl)-3-(5-fluoropyridin-3-yl)quinazolin-4(3h)-one] it is 7 nM; for `C[C@H](Nc1nc(N)nc(N)c1Cl)c1nc2cccc(F)c2c(=O)n1-c1cccnc1` [Compound 52, (S)-2-(1-((2,6-Diamino-5-chloropyrimidin-4-yl)amino)ethyl)-5-fluoro-3-(pyridin-3-yl)quinazolin-4(3H)-one] it is 63 nM. `C[C@H](Nc1nc(N)nc(N)c1Cl)c1nc2cccc(Cl)c2c(=O)n1-c1cccnc1` [Compound 53, (S)-5-Chloro-2-(1-((2,6-diamino-5-chloropyrimidin-4-yl)amino)ethyl)-3-(pyridin-3-yl)quinazolin-4(3H)-on] came in with an IC50 of 4 nM. `C[C@H](Nc1nc(N)nc(N)c1C#N)c1nc2c(C#N)cc(F)cc2c(=O)n1-c1cccnc1` [Compound 54, (S)-2-(1-((2,6-Diamino-5-cyanopyrimidin-4-yl)amino)ethyl)-6-fluoro-4-oxo-3-(pyridin-3-yl)-3,4-dihydroquinazoline-8-carbonitrile]: it took 10 nM to reach half-maximal inhibition (IC50). `CC[C@H](Nc1nc(N)nc(N)c1C#N)c1nc2c(C#N)cc(F)cc2c(=O)n1-c1cncc(F)c1` [Compound 55, (S)-2-(1-((2,6-Diamino-5-cyanopyrimidin-4-yl)amino)propyl)-6-fluoro-3-(5-fluoropyridin-3-yl)-4-oxo-3,4-dihydroquinazoline-8-carbonitrile]: it took 60 nM to reach half-maximal inhibition (IC50).

`N#Cc1c(N)nc(N)nc1N[C@H](c1nc2c(C#N)cc(F)cc2c(=O)n1-c1cncc(F)c1)C1CC1` [Compound 56, (S)-2-(Cyclopropyl((2,6-diamino-5-cyanopyrimidin-4-yl)amino)methyl)-6-fluoro-3-(5-fluoropyridin-3-yl)-4-oxo-3,4-dihydroquinazoline-8-carbonitrile] came in with an IC50 of 30 nM. The figure for `CC(C)C[C@H](Nc1nc(N)nc(N)c1C#N)c1nc2cccc(Cl)c2c(=O)n1-c1cncc(F)c1` [Compound 57, (S)-2,4-Diamino-6-((1-(5-chloro-3-(5-fluoropyridin-3-yl)-4-oxo-3,4-dihydroquinazolin-2-yl)-3-methylbutyl)amino)pyrimidine-5-carbonitrile] is 14 nM; for `CC(C)C[C@H](Nc1nc(N)nc(N)c1C#N)c1nc2cccc(Cl)c2c(=O)n1-c1cccnc1` [Compound 58, (S)-2,4-Diamino-6-((1-(5-chloro-4-oxo-3-(pyridin-3-yl)-3,4-dihydroquinazolin-2-yl)-3-methylbutyl)amino)pyrimidine-5-carbonitrile] it is 14 nM. The figure for `N#Cc1ccc(F)c2nc([C@@H](Nc3nc(N)nc(N)c3Cl)C3CC3)n(-c3cccnc3)c(=O)c12` [Compound 59, (S)-2-(cyclopropyl((2,6-diamino-5-chloropyrimidin-4-yl)amino)methyl)-8-fluoro-4-oxo-3-(pyridin-3-yl)-3,4-dihydroquinazoline-5-carbonitrile] is 380 nM; for `C[C@H](Nc1nc(N)nc(N)c1C#N)c1nc2c(F)ccc(Br)c2c(=O)n1-c1cncc(F)c1` [Compound 60, (S)-2,4-diamino-6-((1-(5-bromo-8-fluoro-3-(5-fluoropyridin-3-yl)-4-oxo-3,4-dihydroquinazolin-2-yl)ethyl)amino)pyrimidine-5-carbonitrile] it is 1 nM; for `CC[C@H](Nc1nc(N)nc(N)c1C#N)c1nc2c(F)ccc(Br)c2c(=O)n1-c1cccnc1` [Compound 61, (S)-2,4-diamino-6-((1-(5-bromo-8-fluoro-4-oxo-3-(pyridin-3-yl)-3,4-dihydroquinazolin-2-yl)propyl)amino)pyrimidine-5-carbonitrile] it is 1 nM. Take `C[C@H](Nc1nc(N)nc(N)c1C#N)c1nc2c(F)ccc(C#N)c2c(=O)n1-c1cncc(F)c1` [Compound 62, (S)-2-(1-((2,6-diamino-5-cyanopyrimidin-4-yl)amino)ethyl)-8-fluoro-3-(5-fluoropyridin-3-yl)-4-oxo-3,4-dihydroquinazoline-5-carbonitrile]: the IC50 was 42 nM. In turn, `C[C@H](Nc1nc(N)nc(N)c1Cl)c1nc2cccc(C#N)c2c(=O)n1-c1cccnc1` [Compound 63, (S)-2-(1-((2,6-diamino-5-chloropyrimidin-4-yl)amino)ethyl)-4-oxo-3-(pyridin-3-yl)-3,4-dihydroquinazoline-5-carbonitrile] had an IC50 of 95 nM. For `C[C@H](Nc1nc(N)nc(N)c1C#N)c1nc2c(F)ccc(Br)c2c(=O)n1-c1cccnc1` [Compound 64, (S)-2,4-diamino-6-((1-(5-bromo-8-fluoro-4-oxo-3-(pyridin-3-yl)-3,4-dihydroquinazolin-2-yl)ethyl)amino)pyrimidine-5-carbonitrile], the IC50 came to 0.6 nM. The figure for `C[C@@H](Nc1nc(N)nc(N)c1C#N)c1nc2c(F)ccc(Cl)c2c(=O)n1-c1cccnc1` [Compound 110, (R)-2,4-Diamino-6-((1-(5-chloro-8-fluoro-4-oxo-3-(pyridin-3-yl)-3,4-dihydroquinazolin-2-yl)ethyl)amino)pyrimidine-5-carbonitrile] is 61 nM. Molecule `CC[C@@H](Nc1nc(N)nc(N)c1C#N)c1nc2c(F)ccc(Cl)c2c(=O)n1-c1cccnc1` [Compound 111, (R)-2,4-Diamino-6-((1-(5-chloro-8-fluoro-4-oxo-3-(pyridin-3-yl)-3,4-dihydroquinazolin-2-yl)propyl)amino)pyrimidine-5-carbonitrile] displayed an IC50 of 9 nM. The same measure for `N#Cc1c(N)nc(N)nc1N[C@@H](c1nc2c(F)ccc(Cl)c2c(=O)n1-c1cccnc1)C1CC1` [Compound 112, (R)-2,4-Diamino-6-(((5-chloro-8-fluoro-4-oxo-3-(pyridin-3-yl)-3,4-dihydroquinazolin-2-yl)(cyclopropyl)methyl)amino)pyrimidine-5-carbonitrile]: 7 nM; for `C[C@@H](Nc1nc(N)nc(N)c1C#N)c1nc2c(F)ccc(Cl)c2c(=O)n1-c1cncc(F)c1` [Compound 113, (R)-2,4-Diamino-6-((1-(5-chloro-8-fluoro-3-(5-fluoropyridin-3-yl)-4-oxo-3,4-dihydroquinazolin-2-yl)ethyl)amino)pyrimidine-5-carbonitrile]: 620 nM.

Broadly, the IC50 is the concentration at which inhibition is half-maximal.
